From US20090170834A1, “Fused Pyrimidones and Thiopyrimidones, and Uses Thereof” (PROLEXYS PHARMACEUTICALS, INC., priority 2005, published 2009) come the findings set out here.

In general, IC50 refers to the concentration that gives 50% inhibition.

For experiment [1], the system named is engineered tumorigenic cells. In words: Sytox primary screen, inhibition of growth of tumorigenic cells. It is filed as cell-based. The settings on record: Homo sapiens; compound in DMSO, 48 hours exposure, Sytox readout. The protocol:
The ability of Compounds 1 and 2, dissolved in DMSO, to inhibit the growth of normal and tumorigenic cells was measured. The compounds were assayed by the Sytox primary screen, a phenotypic assay which monitors alterations in cell survival-proliferation as a result of compound treatment. It was devised as high throughput method to identify compounds which specifically alter the growth potential of cells harboring the causative mutations found in cancer patients while not affecting the growth of normal cells. The assay relies upon an inexpensive, simple and reliable readout of a membrane impermeable fluorescent dye (Sytox, from Molecular Probes) which binds to nucleic acid. In healthy cells, no signal is detected because the cell's membrane is intact and the dye will not enter. However, if a cell's membrane is compromised as a result of apoptosis or necrosis, a fluorescent signal proportional to the number of similarly affected cells will be detected. By utilizing a two-step readout (final read in the presence of detergent to permit labeling of all cells), the assay can identify compounds which produce cytostasis, cytotoxicity and/or mitogenesis. The first read or “dead cell” read, provides an estimate of the toxicity of a given compound by indicating the number of dead or dying cells in the culture at the time of assay. […]

The next experiment deals with HT-1080 cells. The experiment can be described thus: Inhibition of growth of HT-1080 cells (Sytox assay). The experiment is classed as cell-based. The settings on record: Homo sapiens; HT-1080 fibrosarcoma cells, N-ras codon 12 mutation; compound in DMSO, 48 hours exposure. As to the method: The ability of Compounds 1 and 2, dissolved in DMSO, to inhibit the growth of normal and tumorigenic cells was measured. The compounds were assayed by the Sytox primary screen, a phenotypic assay which monitors alterations in cell survival-proliferation as a result of compound treatment. It was devised as high throughput method to identify compounds which specifically alter the growth potential of cells harboring the causative mutations found in cancer patients while not affecting the growth of normal cells. The assay relies upon an inexpensive, simple and reliable readout of a membrane impermeable fluorescent dye (Sytox, from Molecular Probes) which binds to nucleic acid. In healthy cells, no signal is detected because the cell's membrane is intact and the dye will not enter. However, if a cell's membrane is compromised as a result of apoptosis or necrosis, a fluorescent signal proportional to the number of similarly affected cells will be detected. By utilizing a two-step readout (final read in the presence of detergent to permit labeling of all cells), the assay can identify compounds which produce cytostasis, cytotoxicity and/or mitogenesis. The first read or “dead cell” read, provides an estimate of the toxicity of a given compound by indicating the number of dead or dying cells in the culture at the time of assay. The second read or “total cell” read, captures both the cumulative effects of cytoxicity in reducing the size of the cell population as well as any cytostatic or anti-proliferative effects a test compound may exert on the cells in the test population in the absence of toxicity.
Cells were seeded overnight in 96 well plates at densities that without treatment would permit 95% confluence in the wells 72 hours later. The following day, the cells were exposed to test compounds in a dilution series for a period of 48 hours. Following this incubation period, the Sytox reagent was added to the cultures at the manufacturer's recommended concentration and the dead cell fluorescence read was taken. After completion of this measurement, the detergent Saponin was added to each well of the cultures to permeabilize the membranes allowing the Sytox reagent to enter every cell, thereby facilitating measurement of the total number of cells remaining in the culture.
The ability of various compounds of the invention, in DMSO, to inhibit the growth of HT-1080 cells was measured. The HT-1080 cell line used in these experiments was derived from a patient with fibrosarcoma and harbors an activating mutation in the N-ras gene at codon 12. The compound was assayed using the assay described in Example 6. The results of the assay are shown in the table below, where the activity corresponds to the following ranges: A—less than 10 nM, B—10-100 nM, C—100-1000 nM, D—1000-2000 nM, E—greater than 2000 nM.

With `CCOc1ccccc1-n1c(C(C)N2CCN(C(=O)COc3ccc(Cl)cc3)CC2)nc2ccncc2c1=O` (stereo not drawn) [Compound 1, 2-(1-(4-(2-(4-chlorophenoxy)acetyl)piperazin-1-yl)ethyl)-3-(2-ethoxyphenyl)pyrido[4,5-d]pyrimidin-4(3H)-one], the IC50 in experiment [1] is ~10 µM.

Turning to `CCOc1ccccc1-n1c(C(C)N2CCN(C(=O)COc3ccc(Cl)cc3)CC2)nc2c(cnn2-c2ccccc2)c1=O` (stereo not drawn) [Compound 2, 6-(1-(4-(2-(4-chlorophenoxy)acetyl)piperazin-1-yl)ethyl)-5-(2-ethoxyphenyl)-1-phenyl-1H-pyrazolo[3,4-d]pyrimidin-4(5H)-one], the IC50 in experiment [1] is ~10 µM.

As for `CCOc1ccccc1-n1c(CN2CCNCC2)nc2c(cnn2-c2ccccc2)c1=O` [Compound 3, 5-(2-ethoxyphenyl)-1-phenyl-6-(piperazin-1-ylmethyl)-1H-pyrazolo[3,4-d]pyrimidin-4(5H)-one], the IC50 in the experiment with HT-1080 cells is > 2000 nM.

Turning to `CCOc1ccccc1-n1c(CN2CCNCC2)nc2sccc2c1=O` [Compound 4, 3-(2-ethoxyphenyl)-2-(piperazin-1-ylmethyl)thieno[2,3-d]pyrimidin-4(3H)-one], the IC50 with HT-1080 cells was in the range of 100 to 1000 nM.

Turning to `CCOc1ccccc1-n1c(CN2CCCNCC2)nc2sccc2c1=O` [Compound 5, 2-((1,4-diazepan-1-yl)methyl)-3-(2-ethoxyphenyl)thieno[2,3-d]pyrimidin-4(3H)-one], the IC50 in the experiment on HT-1080 cells was < 10 nM.

`CCOc1ccccc1-n1c(CN2CCCN(C)CC2)nc2sccc2c1=O` [Compound 6, 3-(2-ethoxyphenyl)-2-((4-methyl-1,4-diazepan-1-yl)methyl)thieno[2,3-d]pyrimidin-4(3H)-one]: the IC50 in the experiment with HT-1080 cells is < 10 nM.

In the experiment with HT-1080 cells, `CCOc1ccccc1-n1c(CN2CCCN(CC)CC2)nc2sccc2c1=O` [Compound 7, 3-(2-ethoxyphenyl)-2-((4-ethyl-1,4-diazepan-1-yl)methyl)thieno[2,3-d]pyrimidin-4(3H)-one] returned an IC50 of 10 to 100 nM.

Regarding `CCOc1ccccc1-n1c(CN2CCNCC2)nc2cnccc2c1=O` [Compound 8, 3-(2-ethoxyphenyl)-2-(piperazin-1-ylmethyl)pyrido[3,4-d]pyrimidin-4(3H)-one], the IC50 in the experiment on HT-1080 cells was > 2000 nM.

Consider `CCOc1ccccc1-n1c(CN2CCCN(C)CC2)nc2cnccc2c1=O` [Compound 9, 3-(2-ethoxyphenyl)-2-((4-methyl-1,4-diazepan-1-yl)methyl)pyrido[3,4-d]pyrimidin-4(3H)-one], for which the IC50 in the experiment on HT-1080 cells was > 2000 nM.
